The values that follow come from the METLIN SMRT retention time set (Domingo-Almenara et al. 2019).

SMILES strings stand for the structures.

The nature of the series: gradient 5% acetonitrile 3 min, to 50% in 2 min, to 85% in 15 min, held 3 min, 100 µL/min. As to conditions: column: Zorbax Extend-C18 2.1 x 50 mm; eluents: water / acetonitrile, 0.1% formic acid. The gist of the method: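 Each retention time is based on an adduct peak selected computationally and verified by manual inspection. Measurements used HPLC–quadrupole time-of-flight mass spectrometry in positive and negative ionization mode on mixtures of ~100 pure standards. Chromatography ran on a Zorbax Extend-C18 column (2.1 × 50 mm, 1.8 μm) at 100 μL/min with water and acetonitrile, each containing 0.1% formic acid, and dead and dwell volumes of 40 μL and 900 μL.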
`CC1CCCN(C(=O)C2CCN(S(=O)(=O)c3ccc4c(c3)CCCC(=O)N4)CC2)C1` (stereo unspecified) yielded an RP-LC retention time of 731 s.

The molecule `Cc1noc(C)c1Cc1ccc(C(=O)N2CCC(c3nc(CCOCC4CC4)no3)C2)o1` (stereo unspecified) displayed an RP-LC retention time of 784 s.

Turning to `COc1ccc(CCNC(=O)Cn2nc3n(c2=O)CCCCC3)cc1OC`, the RP-LC retention time was found to be 641 s.

`COCCNC(=O)C1c2cc(OC)c(OC)cc2C(=O)N(C)C1c1ccc(OC)cc1` (stereo unspecified): the RP-LC retention time stood at 661 s.

The molecule `O=C(Nc1c(-c2ccc(F)cc2)nc2ccccn12)c1ccccc1F` displayed an RP-LC retention time of 639 s.

In turn, `Cn1nc(-c2nnc(-c3ccccc3F)o2)c2c1CCN(S(=O)(=O)c1cccc(C#N)c1)C2` showed an RP-LC retention time of 885 s.

Turning to `Cc1nc(N2CCOCC2)c2c(C(=O)Nc3ccc(F)cc3Cl)c(C)oc2n1`, the RP-LC retention time is 896 s.

As to `COc1ccc(OC)c(NC(=O)c2cc(C)n(CCN(C)C)c2C)c1`, the RP-LC retention time was found to be 636 s.

Consider `CCN1CCN(CC2CCN(S(=O)(=O)c3cc(F)cc(F)c3)CC2)CC1`, for which the RP-LC retention time turned out to be 598 s.

Regarding `CCc1cccc(-n2nnc(C(=O)N3CCC4(CC3)OCCO4)c2-c2ccncc2)c1`, the RP-LC retention time turned out to be 744 s.

As for `Cc1cc(C)n2nc(SCC(=O)NCCC(C)C)nc2n1`, the RP-LC retention time came out at 690 s.

`COc1ccc(-c2nnc(-c3cccc(S(=O)(=O)N4CCC(C)CC4)c3)o2)cc1OC` displayed an RP-LC retention time of 1050 s.

Take `O=C(CCSc1ccccc1)Nc1cc(-c2cccs2)nn1CCO`: the RP-LC retention time was 793 s.

The molecule `O=C(Cc1ccccc1)N1CCCC1c1nc(-c2ccccc2Cl)no1` (stereo unspecified) gave an RP-LC retention time of 994 s.

In turn, `CCCOc1cc(N2CCN(S(=O)(=O)CCC)CC2)nc(C)n1` came in with an RP-LC retention time of 606 s.

In the case of `COc1ccc(Cn2c(=O)c3ccnn3c3ccc(C(=O)O)cc32)cc1`, the RP-LC retention time amounted to 777 s.

For the molecule `CCc1nc(N)n(CC(=O)Nc2ccc(F)cc2C)c(=O)c1C`, the RP-LC retention time came out at 626 s.

`COc1ccc(NC(=O)CSc2nnc3c4cc(-c5ccc(F)cc5)nn4ccn23)c(OC)c1` returned an RP-LC retention time of 648 s.

On to `O=C(c1n[nH]c2c1CCCC2)N1CCCCC1`, for which the RP-LC retention time is 695 s.

Molecule `Cc1ccc(S(=O)(=O)N2CC=C(c3cn(C)c4ncccc34)CC2)cc1` yielded an RP-LC retention time of 990 s.

Molecule `CCN(CC)CCCNC(=O)Cn1c(=O)c2cccn2c2ccccc21` registered an RP-LC retention time of 602 s.

`CC1CCCN(CCCNC(=O)c2ccc3c(c2)NC(=O)C2CCCN32)C1` (stereo unspecified): the RP-LC retention time worked out at 579 s.

With `COC(=O)c1cc2ccsc2n1CC(=O)Nc1ccc(F)c(Cl)c1`, the RP-LC retention time is 1010 s.

For `CCNC(=O)NC1CCN(c2ccc(C)c(C)c2)C1=O` (stereo unspecified), the RP-LC retention time came to 690 s.

Molecule `Clc1ccccc1-c1nc2ccccc2[nH]1` came in with an RP-LC retention time of 663 s.

In turn, `Cc1noc(-c2ccc(=O)n(CC(=O)Nc3ccccc3)c2)n1` returned an RP-LC retention time of 667 s.

In the case of `COC(=O)c1sccc1NC(=O)C1CCN(Cc2nc(-c3ccc(OC)c(OC)c3)no2)CC1`, the RP-LC retention time worked out at 747 s.

The molecule `Cc1nc(C(=O)Nc2ccc(Cl)cc2)c(C)o1` displayed an RP-LC retention time of 901 s.

`CCCCC#Cc1nc(NC)c2ncn([C@@H]3O[C@H](CO)C(O)[C@@H]3O)c2n1` (stereo partly specified) gave an RP-LC retention time of 724 s.

`COc1cccc(-c2ccc3nc(N4CCC(C(=O)N5CCOCC5)CC4)sc3n2)c1` came in with an RP-LC retention time of 843 s.

As for `CCc1ccc(S(=O)(=O)Nc2ccc(N3CCCN(C)CC3)cc2C(=O)O)cc1`, the RP-LC retention time stood at 650 s.

In turn, `O=C(C1CCN(c2cncnc2N2CCCC2)CC1)N1CCCCC1` displayed an RP-LC retention time of 613 s.

`OCC1OC(n2cnc3c(SCc4ccccc4)ncnc32)C(O)C1O` (stereo unspecified): the RP-LC retention time was 663 s.

With `Cc1nn(-c2nc(-c3ccc(F)cc3)cs2)c(C)c1CC(=O)Nc1ccccc1`, the RP-LC retention time stood at 1150 s.

On to `CCS(=O)(=O)N1CCCN(C(=O)NC)CC1`, for which the RP-LC retention time came out at 566 s.

On to `COc1ccc(C2C(C(=O)N3CCOCC3)=C(C)NC3=C2C(=O)CCC3)cc1Br` (stereo unspecified), for which the RP-LC retention time is 653 s.

In turn, `O=C(NC1CCN(c2cc(-c3ccc(F)cc3)[nH]n2)C1)c1ccccc1` (stereo unspecified) gave an RP-LC retention time of 705 s.

Regarding `CC(C)N(C(=O)Cn1c(C2CC(=O)N(Cc3ccccc3)C2)nc2ccccc21)C(C)C` (stereo unspecified), the RP-LC retention time turned out to be 764 s.

In turn, `COc1cccc(Cn2c(=O)c3cnc(-c4ccc(C)cc4)nc3n(C)c2=O)c1` gave an RP-LC retention time of 1250 s.

With `Cc1cc(Cl)ccc1NS(=O)(=O)c1cc2c(s1)CCN(C(=O)C1CC1)C2`, the RP-LC retention time was determined as 923 s.

`CCn1cc(CN2CCCCC2c2nncn2Cc2ccccc2)cn1` (stereo unspecified) gave an RP-LC retention time of 575 s.

On to `COc1ccc(-c2cn3c(CC(=O)Nc4ccc(F)cc4)csc3n2)cc1OC`, for which the RP-LC retention time was 729 s.

On to `CCC(C)C(NC(=O)c1cc(OC)c(OC)c(OC)c1)C(=O)Nc1nc2ccccc2[nH]1` (stereo unspecified), for which the RP-LC retention time worked out at 725 s.

For the molecule `COc1ccc(CNC(=O)N2CCN(Cc3nc4cc(-c5ccccc5)ccc4o3)CC2)cc1`, the RP-LC retention time was found to be 812 s.

`COc1ccc(-c2ncccc2CNS(=O)(=O)c2ccc(Br)cc2)cc1` came in with an RP-LC retention time of 733 s.

Take `Cn1nnnc1SCC(=O)OCc1cc(-c2ccco2)on1`: the RP-LC retention time is 728 s.

In turn, `Cc1ccn2c(NC(=O)C(C)(C)Oc3ccc(Cl)cc3)c(-c3ccc(F)cc3)nc2c1` came in with an RP-LC retention time of 819 s.

`CCn1cnc2c(-c3ccccc3)cn(CC(=O)NCc3ccco3)c2c1=O` registered an RP-LC retention time of 796 s.

As for `O=S(=O)(NCC1CCN(Cc2ccco2)CC1)c1ccc2c(c1)CCCC2`, the RP-LC retention time worked out at 603 s.

`CCc1nnc2ccc(-c3noc(-c4ccc(F)cc4F)n3)cn12`: the RP-LC retention time is 879 s.

Turning to `CN(CCc1noc(-c2ccc(C(=O)N3CCOCC3)cc2)n1)C(=O)COc1ccc(Cl)cc1`, the RP-LC retention time was 766 s.

`CC(C)NC(=O)CCNc1c(-c2ccc(F)cc2)nc2cnccn12` had an RP-LC retention time of 616 s.

`O=C(NCCn1ncccc1=O)c1csc(-c2ccccc2)n1` gave an RP-LC retention time of 648 s.

With `N#CC(C#N)=Cc1ccc(O)c(O)c1`, the RP-LC retention time came to 841 s.

`O=c1c2nc(-c3ccccc3)cn2ccn1-c1ccc(Cl)cc1` showed an RP-LC retention time of 841 s.

In turn, `Cc1ccc(N2C(=O)CN(S(C)(=O)=O)CC2(C)C(=O)NCc2ccc(Cl)cc2)cc1C` (stereo unspecified) gave an RP-LC retention time of 874 s.

Regarding `Cc1cc2c(=O)n(CC(=O)Nc3ccc4c(c3)OCCO4)c3cccnc3n2n1`, the RP-LC retention time worked out at 693 s.

`Cc1cc(C)cc(-n2ccnc(NC(=O)Nc3ccc(F)c(Cl)c3)c2=O)c1` came in with an RP-LC retention time of 1150 s.

`CC1CCN(C2=NCCN2C(=O)c2ccccc2Cl)CC1` gave an RP-LC retention time of 655 s.

The molecule `O=C(CSc1nnc(-c2ccccc2)o1)Nc1nsc(-c2ccccc2)n1` gave an RP-LC retention time of 793 s.

`COc1ccc(S(=O)(=O)Nc2cc(-c3cn4cccc(C)c4n3)ccc2C)cc1C` gave an RP-LC retention time of 707 s.

Turning to `Cc1cccc(CCNC(=S)Nc2ccc3nc(N4CCN(C)CC4)cc(C)c3c2)c1`, the RP-LC retention time was 618 s.

In turn, `O=C(N[C@H](Cc1ccccc1)C(=O)NCc1cscn1)c1ccccc1` had an RP-LC retention time of 738 s.

`O=C(CSc1ccc(F)cc1)NCC1(c2ccc(F)cc2)CC1` yielded an RP-LC retention time of 909 s.

Molecule `COc1ccc(C(=O)CSc2nnc3sc4ccccc4n23)cc1OC` gave an RP-LC retention time of 768 s.

In the case of `Cc1cc(C)c(S(=O)(=O)N2CCCC2c2nc(-c3ccccc3)no2)c(C)c1` (stereo unspecified), the RP-LC retention time came out at 1230 s.

`COc1ccc(Cl)cc1C(=O)Nc1nc2c(s1)Cc1c(Br)ccc(OC)c1-2` came in with an RP-LC retention time of 1350 s.

Regarding `O=C(c1ccsc1)N1CCCn2nc(-c3ccc(Cl)cc3)cc2C1`, the RP-LC retention time was found to be 945 s.

On to `COc1ccc2cccc(NC(=O)c3csc(C)n3)c2n1`, for which the RP-LC retention time was determined as 1120 s.

The molecule `CCN1CCn2cc(C(=O)NCc3ccc(C(C)C)cc3)nc2C1` registered an RP-LC retention time of 644 s.

Turning to `Cc1noc(-c2ccc(OC3CN(C(=O)Cc4ccccc4)C3)cc2)n1`, the RP-LC retention time was determined as 924 s.

`CCOc1cc(=O)n2c(c1C(=O)N1CCC3(CC1)OCCO3)CCCCC2` returned an RP-LC retention time of 639 s.

In the case of `CCOc1ccccc1NC(=O)CSc1cc(N2CCN(c3ccc(OC)cc3)CC2)ncn1`, the RP-LC retention time came out at 1090 s.

In turn, `CCCCN(Cc1ccco1)C(=O)Cn1nc(Cc2ccncc2)c2ccccc2c1=O` showed an RP-LC retention time of 679 s.

Consider `CCn1c(=O)c2c(cc(C)n2C)n(CC(=O)Nc2ccccc2C)c1=O`, for which the RP-LC retention time was 776 s.

As for `Cn1c(N2CCCC(C(=O)N3CCN(c4ncccn4)CC3)C2)cc(=O)n(C)c1=O` (stereo unspecified), the RP-LC retention time worked out at 618 s.

In turn, `CCOc1nc(OCC)c2cnn(C)c2n1` returned an RP-LC retention time of 901 s.

In turn, `Cc1ccccc1Cn1cc(C(=O)O)c(S(=O)(=O)N2CCSCC2)n1` registered an RP-LC retention time of 848 s.

For the molecule `CN(C)S(=O)(=O)c1ccc2c(c1)N(CC(=O)NCCc1ccccc1)C(=O)C1CCCCN21` (stereo unspecified), the RP-LC retention time worked out at 918 s.

In turn, `CN1CCN(CCCNC(=O)CN2C(=O)C3CCCCN3c3ccc(C(=O)N(C)C)cc32)CC1` (stereo unspecified) registered an RP-LC retention time of 572 s.

In turn, `CCn1cc(-c2nc(CC(=O)Nc3ccc(OC)c(Cl)c3)cs2)c2cccnc21` yielded an RP-LC retention time of 918 s.
